Experimental data as given in patent US8207178B2 (priority 2007, dated 2012).
Like-named read-outs stand apart in the source and are kept apart here.

Tests used:
[1] = tested on: HIV-1 K103N-L100I mutant; test: microbe, parasite or virus in culture; type: cell-based, human immunodeficiency virus type 1 (HIV-1)
[2] = tested on: wild type HIV-1; test: microbe, parasite or virus in culture; type: cell-based, human immunodeficiency virus type 1 (HIV-1); conditions: Human immunodeficiency virus 1, Hela-JC53
[3] = Human immunodeficiency virus 1, HeLa, read-out: EC50 mutant K103N-L100I, mutant K103N-L100I

SMILES | EC50 [1, 3] | EC50 [2] | EC50 ([1]; read-out: EC50 mutant K103N-L100I, mutant K103N-L100I)
Cc1cc(-c2ccncc2)cc(C)c1Nc1nc(Nc2ccc(C#N)cc2)nc2ccn(C)c12 [Example 19, 4-(4-(2,6-Dimethyl-4-(pyridin-4-yl)phenylamino)-5-methyl-5H-pyrrolo[3,2-d]pyrimidin-2-ylamino)benzonitrile] | 0.001 to 0.01 µM | < 0.001 µM | 
Cc1cc(-c2ccc(S(N)(=O)=O)cc2)cc(C)c1Oc1nc(Nc2ccc(C#N)cc2)nc2ccn(C)c12 [Example 72, 4′-(2-(4-cyanophenylamino)-5-methyl-5H-pyrrolo[3,2-d]pyrimidin-4-yloxy)-3′,5′-dimethylbiphenyl-4-sulfonamide] | < 0.001 µM | 0.001 to 0.01 µM | 
Cc1cc(-c2ccc(C(=O)O)cc2)cc(C)c1Oc1nc(Nc2ccc(C#N)cc2)nc2ccn(C)c12 [Example 75, 4′-(2-(4-cyanophenylamino)-5-methyl-5H-pyrrolo[3,2-d]pyrimidin-4-yloxy)-3′,5′-dimethylbiphenyl-4-carboxylic acid] | 0.001 to 0.01 µM | < 0.001 µM | 
COc1cnccc1-c1cc(C)c(Oc2nc(Nc3ccc(C#N)cc3)nc3ccn(C)c23)c(C)c1 [Example 9, 4-(4-(4-(3-Methoxypyridin-4-yl)-2,6-dimethylphenoxy)-5-methyl-5H-pyrrolo[3,2-d]pyrimidin-2-ylamino) benzonitrile] | 0.001 to 0.01 µM | 0.001 to 0.01 µM | 
Cn1cnc2nc(Nc3ccc(C#N)cc3)nc(Oc3c(Cl)cc(-c4ccc(C(N)=O)cc4)cc3Cl)c21 [Example 112, 3′,5′-dichloro-4′-(2-(4-cyanophenylamino)-7-methyl-7H-purin-6-yloxy)biphenyl-4-carboxamide] | 0.001 to 0.01 µM | < 0.001 µM | 
COc1cc(-c2cc(C)c(Oc3nc(Nc4ccc(C#N)cc4)nc4ccn(C)c34)c(C)c2)ccn1 [Example 10, 4-(4-(4-(2-Methoxypyridin-4-yl)-2,6-dimethylphenoxy)-5-methyl-5H-pyrrolo[3,2-d]pyrimidin-2-ylamino) benzonitrile] | > 0.01 µM | > 0.01 µM | 
Cc1cc(-c2ccnn2C)cc(C)c1Oc1nc(Nc2ccc(C#N)cc2)nc2nc[nH]c12 [Example 47, 4-(6-(2,6-Dimethyl-4-(1-methyl-1H-pyrazol-5-yl)phenoxy)-7H-purin-2-ylamino)benzonitrile] | > 0.01 µM | 0.001 to 0.01 µM | 
Cc1cc(-c2ccncn2)cc(C)c1Oc1nc(Nc2ccc(C#N)cc2)nc2ccn(C)c12 [Example 48, 4-(4-(2,6-Dimethyl-4-(pyrimidin-4-yl)phenoxy)-5-methyl-5H-pyrrolo [3,2-d]pyrimidin-2-ylamino)benzonitrile] | 0.001 to 0.01 µM | 0.001 to 0.01 µM | 
Cc1cc(-c2ccc(F)cc2)cc(C)c1Oc1nc(Nc2ccc(C#N)cc2)nc2ccn(C)c12 [Example 62, 4-(4-(4′-fluoro-3,5-dimethylbiphenyl-4-yloxy)-5-methyl-5H-pyrrolo[3,2-d]pyrimidin-2-ylamino) benzonitrile] | > 0.01 µM | 0.001 to 0.01 µM | 
COc1ccc(Cn2cnc3nc(Nc4ccc(C#N)cc4)nc(Oc4ccc(-c5ccncc5)cc4Cl)c32)cc1 [Example 101, 4-(6-(2-Chloro-4-(pyridin-4-yl)phenoxy)-7-(4-methoxybenzyl)-7H-purin-2-ylamino)benzonitrile] | > 0.01 µM | > 0.01 µM | 
COc1ccc(Cn2cnc3nc(Nc4ccc(C#N)cc4)nc(Oc4c(Cl)cc(-c5ccncc5)cc4Cl)c32)cc1 [Example 103, 4-(6-(2,6-Dichloro-4-(pyridin-4-yl)phenoxy)-7-(4-methoxybenzyl)-7H-purin-2-ylamino)benzonitrile] | > 0.01 µM | 0.001 to 0.01 µM | 
Cc1cc(-c2cnn(Cc3ccccc3)c2)cc(C)c1Oc1nc(Nc2ccc(C#N)cc2)nc2ccn(C)c12 [Example 76, 4-(4-(4-(1-benzyl-1H-pyrazol-4-yl)-2,6-dimethylphenoxy)-5-methyl-5H-pyrrolo[3,2-d]pyrimidin-2-ylamino)benzonitrile] | > 0.01 µM | 0.001 to 0.01 µM | 
Cc1cc(-c2ccccc2S(=O)(=O)NC(C)(C)C)cc(C)c1Oc1nc(Nc2ccc(C#N)cc2)nc2ccn(C)c12 [Example 74, N-tert-butyl-4′-(2-(4-cyanophenylamino)-5-methyl-5H-pyrrolo[3,2-d]pyrimidin-4-yloxy)-3′,5′-dimethylbiphenyl-2-sulfonamide] | > 0.01 µM | > 0.01 µM | 
Cc1cc(-c2ccccc2S(N)(=O)=O)cc(C)c1Oc1nc(Nc2ccc(C#N)cc2)nc2ccn(C)c12 [Example 73, 4′-(2-(4-cyanophenylamino)-5-methyl-5H-pyrrolo[3,2-d]pyrimidin-4-yloxy)-3′,5′-dimethylbiphenyl-2-sulfonamide] | > 0.01 µM | > 0.01 µM | 
Cc1cc(-c2cccc3ncccc23)cc(C)c1Oc1nc(Nc2ccc(C#N)cc2)nc2ccn(C)c12 [Example 38, 4-(4-(2,6-Dimethyl-4-(quinolin-5-yl)phenoxy)-5-methyl-5H-pyrrolo[3,2-d]pyrimidin-2-ylamino) benzonitrile] | 0.001 to 0.01 µM | 0.001 to 0.01 µM | 
Cc1cc(-c2ccncc2C#N)cc(C)c1Oc1nc(Nc2ccc(C#N)cc2)nc2ccn(C)c12 [Example 23, 4-(4-(2-(4-Cyanophenylamino)-5-methyl-5H-pyrrolo[3,2-d]pyrimidin-4-yloxy)-3,5-dimethyl-phenyl)nicotinonitrile] |  | < 0.001 µM | > 0.01 µM

SMILES | EC50 [1, 3] | EC50 [2] | EC50 ([1]; read-out: EC50 mutant K103N-L100I, mutant K103N-L100I)
Cc1cc(-c2ccc(C(=O)O)cc2)cc(C)c1Oc1nc(Nc2ccc(C#N)cc2)nc2ncn(C)c12 [Example 110, 4′-(2-(4-Cyanophenylamino)-7-methyl-7H-purin-6-yloxy)-3′,5′-dimethylbiphenyl-4-carboxylic acid] | > 0.01 µM | > 0.01 µM | 
CCOC(=O)c1ccc(-c2cc(C)c(Oc3nc(Nc4ccc(C#N)cc4)nc4nc[nH]c34)c(C)c2)cn1 [Example 120, Ethyl 5-(4-(2-(4-cyanophenylamino)-7H-purin-6-yloxy)-3,5-dimethylphenyl)picolinate] | > 0.01 µM | > 0.01 µM | 
Cc1cc(-c2ccc(C(N)=O)cc2F)cc(C)c1Oc1nc(Nc2ccc(C#N)cc2)nc2c1ncn2C [Example 56, 4′-(2-(4-Cyanophenylamino)-9-methyl-9H-purin-6-yloxy)-2-fluoro-3′,5′-dimethylbiphenyl-4-carboxamide] | 0.001 to 0.01 µM | 0.001 to 0.01 µM | 
Cc1cc(-c2c(C)nn(C)c2C)cc(C)c1Oc1nc(Nc2ccc(C#N)cc2)nc2ccn(C)c12 [Example 21] | > 0.01 µM | 0.001 to 0.01 µM | 
Cc1cc(-c2ccc(S(=O)(=O)NC3CC3)cc2)cc(C)c1Oc1nc(Nc2ccc(C#N)cc2)nc2ccn(C)c12 [Example 85, 4′-(2-(4-cyanophenylamino)-5-methyl-5H-pyrrolo[3,2-d]pyrimidin-4-yloxy)-N-cyclopropyl-3′,5′-dimethylbiphenyl-4-sulfonamide] | > 0.01 µM | 0.001 to 0.01 µM | 
Cc1cc(-c2ccc(C#N)nc2)cc(C)c1Oc1nc(Nc2ccc(C#N)cc2)nc2ccn(C)c12 [Example 84, 5-(4-(2-(4-cyanophenylamino)-5-methyl-5H-pyrrolo[3,2-d]pyrimidin-4-yloxy)-3,5-dimethyl-phenyl)picolinonitrile] | 0.001 to 0.01 µM | 0.001 to 0.01 µM | 
Cc1cc(-c2ccc(C(=O)N(C)C)cc2)cc(C)c1Oc1nc(Nc2ccc(C#N)cc2)nc2ccn(C)c12 [Example 89, 4′-(2-(4-cyanophenylamino)-5-methyl-5H-pyrrolo[3,2-d]pyrimidin-4-yloxy)-N,N,3′,5′-tetramethylbiphenyl-4-carboxamide] | > 0.01 µM | 0.001 to 0.01 µM | 
Cc1cc(-c2ccc(C(=O)N3CCC3)cc2)cc(C)c1Oc1nc(Nc2ccc(C#N)cc2)nc2ccn(C)c12 [Example 90] | > 0.01 µM | 0.001 to 0.01 µM | 
Cc1cc(-c2cnccc2C#N)cc(C)c1Oc1nc(Nc2ccc(C#N)cc2)nc2ccn(C)c12 [Example 64, 3-(4-(2-(4-cyanophenylamino)-5-methyl-5H-pyrrolo[3,2-d]pyrimidin-4-yloxy)-3,5-dimethylphenyl) isonicotinonitrile] | < 0.001 µM | < 0.001 µM | 
Cc1cc(-c2ccncc2)cc(C)c1Oc1nc(Nc2ccc(C#N)cc2)nc2ncn(C)c12 [Example 107, 4-(6-(2,6-Dimethyl-4-(pyridin-4-yl)phenoxy)-7-methyl-7H-purin-2-ylamino)benzonitrile] | 0.001 to 0.01 µM | 0.001 to 0.01 µM | 
Cc1cc(-c2cccnc2)cc(C)c1Oc1nc(Nc2ccc(C#N)cc2)nc2ccn(C)c12 [Example 12, 4-(4-(2,6-Dimethyl-4-(pyridin-3-yl)phenoxy)-5-methyl-5H-pyrrolo[3,2-d]pyrimidin-2-ylamino)benzonitrile] | > 0.01 µM | 0.001 to 0.01 µM | 
Cc1cc(-c2cc(F)nc(F)c2)cc(C)c1Oc1nc(Nc2ccc(C#N)cc2)nc2ccn(C)c12 [Example 4, 4-(4-(4-(2,6-Difluoropyridin-4-yl)-2,6-dimethylphenoxy)-5-methyl-5H-pyrrolo[3,2-d]pyrimidin-2-ylamino) benzonitrile] | > 0.01 µM | 0.001 to 0.01 µM | 
Cc1cc(-c2ccc(C(N)=O)cc2)cc(Cl)c1Oc1nc(Nc2ccc(C#N)cc2)nc2c1ncn2C [Example 117, 3′-chloro-4′-(2-(4-cyanophenylamino)-9-methyl-9H-purin-6-yloxy)-5′-methylbiphenyl-4-carboxamide] | 0.001 to 0.01 µM | < 0.001 µM | 
Cc1cc(-c2ccncc2)cc(C)c1Oc1nc(Nc2ccc(C#N)cc2)nc2c1ncn2C [Example 108, 4-(6-(2,6-dimethyl-4-(pyridin-4-yl)phenoxy)-9-methyl-9H-purin-2-ylamino)benzonitrile] | 0.001 to 0.01 µM | 0.001 to 0.01 µM | 
COc1ncc(-c2cc(C)c(Oc3nc(Nc4ccc(C#N)cc4)nc4ccn(C)c34)c(C)c2)cn1 [Example 20, 4-(4-(4-(2-Methoxypyrimidin-5-yl)-2,6-dimethylphenoxy)-5-methyl-5H-pyrrolo [3,2-d]pyrimidin-2-ylamino)benzonitrile] | 0.001 to 0.01 µM | < 0.001 µM | 
Cc1cc(-c2cn[nH]c2)cc(C)c1Oc1nc(Nc2ccc(C#N)cc2)nc2c(Cl)cn(C)c12 [Example 32, 4-(7-Chloro-4-(2,6-dimethyl-4-(1H-pyrazol-4-yl)phenoxy)-5-methyl-5H-pyrrolo[3,2-d]pyrimidin-2-ylamino)benzonitrile] | > 0.01 µM | 0.001 to 0.01 µM | 
